Source: publication PMC9029089, “1,5-Disubstituted Acylated 2-Amino-4,5-dihydroimidazoles as a New Class of Retinoic Acid Receptor–Related Orphan Receptor (ROR) Inhibitors” (International Journal of Molecular Sciences, 2022)
Like-named read-outs stand apart in the source and are kept apart here.

Columns and labels:
Type in all cases: cell-based
RORγ [1] = target: T1, RORγ (Mus musculus, UniProt P51450); test: Gal4-RORγ-LBD UAS-luciferase reporter assay in TRex-CHO-K1 cells (doxycycline-stimulated); settings: for % Inhibition at 4 μM (N=3): library 2520, RORγ cells; for inhibition at 4 µM: T-REx-CHO-K1, library 2520, RORγ cells, read-out: % Inhibition at 4 μM (N=3)
T1 construct: mRORγ (Pro-261-end); expressed in transfected cells
T1 sequence (P51450 261-516 limits assumed): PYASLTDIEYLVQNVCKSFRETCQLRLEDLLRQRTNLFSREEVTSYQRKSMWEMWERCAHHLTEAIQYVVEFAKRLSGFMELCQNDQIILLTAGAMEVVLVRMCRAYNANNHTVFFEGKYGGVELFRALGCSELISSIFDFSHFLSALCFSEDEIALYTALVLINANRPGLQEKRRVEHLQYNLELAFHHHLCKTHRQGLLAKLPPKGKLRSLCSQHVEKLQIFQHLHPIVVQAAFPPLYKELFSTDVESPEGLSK

RORγ [2] = target: T1, RORγ; test: as above
Excerpt: (§1) The Gal4-DBD-ROR-LBD fusion proteins were subcloned in the pcDNA4/TO expression vector (Thermo Scientific) and transfected into TRex-CHO-K1 cells (Thermo Scientific) for tetracycline-controlled expression of the corresponding ROR proteins. Transfected cells were selected with hygromycin and Zeocin and individual clones for each of the Gal4-RORγ, Gal4-RORα, and Gal4-RORβ cell lines were isolated using a standard serial dilution protocol. Clones with the highest doxycycline-dependent stimulation of luciferase activity were selected for all functional experiments.
(§2) For screening FIU libraries, cells were resuspended in Ham’s F-12 assay medium containing 2% charcoal-treated FBS and no selection drugs. […] Cells were allowed to attach for 2 h, followed by compound treatment and stimulation with 20 ng/mL doxycycline for an additional 16–20 h. Appropriate solvent controls, negative controls with no doxycycline, and blanks with no cells were included in every plate. Prior to measuring luciferase activity, 6 µL of 0.15 mg/mL resazurin (Cayman Chemical) in PBS were added and cells were incubated for 1 h at 37 °C. Fluorescence intensity was detected at 545 nm excitation/590 nm emission using a CLARIOstar reader (BMGLabtech) as a measure of cell viability, to identify any potential cytotoxic effect of test compounds and mixtures.
(§3) Luminescence was normalized by the fluorescence intensity and the percentage of inhibition was calculated with respect to control cells stimulated with doxycycline in the presence of solvent control (0.1% DMF). All primary screens with individual compounds were performed in triplicate with a final concentration of 5 µg/mL. […] IC50 values were calculated using GraphPrism (GraphPad software).

RORα = target: T2, RORα (Homo sapiens, UniProt P35398); test: Gal4-RORα-LBD UAS-luciferase reporter assay in TRex-CHO-K1 cells (doxycycline-stimulated)
T2 construct: hRORα (Pro-211-end); expressed in transfected cells
T2 sequence (P35398 266-523): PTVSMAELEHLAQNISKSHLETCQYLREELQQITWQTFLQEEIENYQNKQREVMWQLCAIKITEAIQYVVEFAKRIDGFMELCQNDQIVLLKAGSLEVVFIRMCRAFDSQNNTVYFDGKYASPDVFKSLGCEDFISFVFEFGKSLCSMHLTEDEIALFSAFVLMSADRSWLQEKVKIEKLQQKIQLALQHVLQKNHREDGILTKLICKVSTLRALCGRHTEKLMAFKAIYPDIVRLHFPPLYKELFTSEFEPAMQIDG
Excerpt: as §1, §2, §3

RORβ = target: T3, RORβ (Rattus norvegicus, UniProt P45446); test: Gal4-RORβ-LBD UAS-luciferase reporter assay in TRex-CHO-K1 cells (doxycycline-stimulated)
T3 construct: rRORβ (Pro 205-end); expressed in transfected cells
T3 sequence (P45446 205-459 isoform P45446-1): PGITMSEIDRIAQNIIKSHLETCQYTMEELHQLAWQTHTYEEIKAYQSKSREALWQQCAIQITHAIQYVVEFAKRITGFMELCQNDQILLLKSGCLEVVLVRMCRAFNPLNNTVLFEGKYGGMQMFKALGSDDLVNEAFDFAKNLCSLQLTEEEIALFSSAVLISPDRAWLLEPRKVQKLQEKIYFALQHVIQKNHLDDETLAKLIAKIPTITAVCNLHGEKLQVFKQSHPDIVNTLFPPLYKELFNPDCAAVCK
Excerpt: To investigate the transcriptional activity of all three RORs, we generated stable cell lines expressing an UAS-driven luciferase reporter together with the corresponding Gal4-DNA binding domain fused to the ligand binding domains (LBDs) of mRORγ (Pro-261-end), hRORα (Pro-211-end), or rRORβ (Pro 205-end). The Gal4-DBD-ROR-LBD fusion proteins were subcloned in the pcDNA4/TO expression vector (Thermo Scientific) and transfected into TRex-CHO-K1 cells (Thermo Scientific) for tetracycline-controlled expression of the corresponding ROR proteins. Transfected cells were selected with hygromycin and Zeocin and individual clones for each of the Gal4-RORγ, Gal4-RORα, and Gal4-RORβ cell lines were isolated using a standard serial dilution protocol. Clones with the highest doxycycline-dependent stimulation of luciferase activity were selected for all functional experiments. All cell lines were maintained in complete Ham’s F12 medium containing 10% fetal bovine serum (FBS), 10 µg/mL blasticidine, 100 µg/mL hygromycin, and 100 µg/mL Zeocin and were used within 2 months of culture without any loss of doxycycline-dependent stimulation of luciferase activity.
For screening FIU libraries, cells were resuspended in Ham’s F-12 assay medium containing 2% charcoal-treated FBS and no selection drugs. Ten thousand cells per well were seeded in 30 µL of assay medium in 384 white plates with clear bottom (Greiner). Cells were allowed to attach for 2 h, followed by compound treatment and stimulation with 20 ng/mL doxycycline for an additional 16–20 h. Appropriate solvent controls, negative controls with no doxycycline, and blanks with no cells were included in every plate. Prior to measuring luciferase activity, 6 µL of 0.15 mg/mL resazurin (Cayman Chemical) in PBS were added and cells were incubated for 1 h at 37 °C. Fluorescence intensity was detected at 545 nm excitation/590 nm emission using a CLARIOstar reader (BMGLabtech) as a measure of cell viability, to identify any potential cytotoxic effect of test compounds and mixtures. Following the resazurin assay, the medium was removed and 20 µL of BriteLite-Plus luciferase reagent (Perking Elmer) were added; luminescence was measured in a CLARIOstar reader using a 384 aperture spoon and a 0.1 sec measuring time interval.
as §3

[3] = read-out: IC50 (μM, N=4) ROR-Gamma, library 2520
[4] = read-out: IC50 (μM, N=4) ROR-Alpha, library 2520
[5] = read-out: IC50 (μM, N=4) ROR-Beta, library 2520
[6] = T-REx-CHO-K1, individual controls 1295.201-307, 5 μg/ml, triplicate, read-out: % Inhibition RORγ 5 μg/ml
[7] = individual controls of library 1295, second confirmatory dose response, Figure 2
[8] = IC50 (μM) (N=4) RORα, individual controls of library 1295, second confirmatory dose response, Figure 2
[9] = IC50 (μM) (N=4) RORβ, individual controls of library 1295, second confirmatory dose response, Figure 2
[10] = IC50 (μM, N=4) ROR-Gamma, library 2520
[11] = RORγ : IC50, Figure 6, confirmatory experiment, N = 4
[12] = IC50 (μM, N=4) ROR-Alpha, library 2520
[13] = Figure 6, confirmatory experiment, N = 4, read-out: RORβ : IC50
[14] = IC50 (μM, N=4) ROR-Beta, library 2520
[15] = T-REx-CHO-K1, read-out: % Inhibition RORγ 5 μg/ml
[16] = IC50 (μM) (N=4) RORγ, individual controls of library 1295, second confirmatory dose response, Figure 2

With CCC(C(=O)NC1=NCC(Cc2ccccc2)N1CC1CCCCC1)c1ccccc1 (mixture of isomers) [2520.27] the “% Inhibition at 4 μM (N=3)” value (RORγ [1]) was 97.7%, the IC50 (RORγ [2]; [3]) was 4.8 ± 0.2 µM and the IC50 (RORα; [4]) was 6.61 ± 0.3 µM. The IC50 (RORβ; [5]) was 4.89 ± 0.3 µM.

In the case of O=C(CCc1ccccc1)NC1=NC[C@H](Cc2ccccc2)N1CCc1ccccc1 [1295.289], the inhibition at 5 µg/mL (RORγ [2]; [6]) is reported as 83.1%, the IC50 (RORγ [2]; [7]) is reported as 7 ± 2.3 µM and the IC50 (RORα; [8]) is reported as 12.7 ± 0.4 µM. It also gave an IC50 (RORβ; [9]) of 12.8 ± 2.7 µM.

With CCOc1ccc(C[C@H]2CN=C(NC(=O)C(CC)c3ccccc3)N2CCC2CC3CCC2C3)cc1 (stereo partly shown) [2520.47] the inhibition at 4 µM (RORγ [1]) was 51.3%, the IC50 (RORγ [2]; [10]) was 4.68 ± 0.2 µM and the IC50 (RORγ [2]; [11]) was 4.6 ± 0.2 µM. It also gave an IC50 (RORα; [12]) of 7.2 ± 0.4 µM, an IC50 (RORβ; [13]) of 6.6 ± 0.4 µM and an IC50 (RORβ; [14]) of 6.67 ± 0.4 µM.

Molecule O=C(Cc1ccccc1)NC1=NC[C@H](Cc2ccccc2)N1CCCC1CCCCC1 [1295.268] has an inhibition at 5 µg/mL (RORγ [2]; [15]) of 103%, an IC50 (RORγ [2]; [7]) of 6.2 ± 0.6 µM and an IC50 (RORα; [8]) of 10.1 ± 0.4 µM. It also gave an IC50 (RORβ; [9]) of 10.4 ± 0.8 µM.

For CCOc1ccc(C[C@H]2CN=C(NC(=O)Cc3ccc(OC)cc3)N2CC2CCCCC2)cc1 [2520.42], the “% Inhibition at 4 μM (N=3)” value (RORγ [1]) was 96.5%, the IC50 (RORγ [2]; [3]) was 5.17 ± 0.8 µM and the IC50 (RORα; [4]) was 5.4 ± 0.4 µM. It also gave an IC50 (RORβ; [5]) of 5.21 ± 0.3 µM.

Molecule CCOc1ccc(C[C@H]2CN=C(NC(=O)C(CC)c3ccccc3)N2CC2CCCCC2)cc1 (stereo partly shown) [2520.39] has an inhibition at 4 µM (RORγ [1]) of 73.2%, an IC50 (RORγ [2]; [10]) of 4.36 ± 0.2 µM and an IC50 (RORγ [2]; [11]) of 4.3 ± 0.2 µM. The IC50 (RORα; [12]) was 6.36 ± 0.3 µM, the IC50 (RORα; RORα : IC50, Figure 6, confirmatory experiment, N = 4) was 6.3 ± 0.3 µM and the IC50 (RORβ; [13]) was 5.3 ± 0.4 µM. The IC50 (RORβ; [14]) was 5.34 ± 0.4 µM.

O=C(Cc1ccccc1)NC1=NC[C@H](Cc2ccccc2)N1CCC1CC2CCC1C2 (stereo partly shown) [1295.270] gave an IC50 (RORγ [2]; [16]) of 5.9 ± 3.3 µM, an inhibition at 5 µg/mL (RORγ [2]; [15]) of 84.6% and an IC50 (RORα; [8]) of 9 ± 0.2 µM. For the same molecule, the IC50 (RORβ; [9]) was 9.3 ± 4.9 µM.

CC(C)(C)C(=O)NC1=NC[C@H](Cc2ccccc2)N1CCc1ccccc1 [1295.298] was tested, and the inhibition at 5 µg/mL (RORγ [2]; [6]) was 94.7%, the IC50 (RORγ [2]; [7]) was 10 ± 1.5 µM and the IC50 (RORα; [7]) was 9.6 ± 0.3 µM. It also gave an IC50 (RORβ; [9]) of 10.8 ± 0.4 µM.

Molecule O=C(NC1=NC[C@H](Cc2ccccc2)N1CCc1ccccc1)C1(c2ccccc2)CC1 [1295.272] has an inhibition at 5 µg/mL (RORγ [2]; [6]) of 96%, an IC50 (RORγ [2]; [7]) of 8 ± 1 µM and an IC50 (RORα; [7]) of 9.8 ± 0.5 µM. It also gave an IC50 (RORβ; [9]) of 14.2 ± 3.6 µM.

O=C(CC1CC2CCC1C2)NC1=NC[C@H](Cc2ccccc2)N1CCc1ccccc1 (stereo partly shown) [1295.307] showed an IC50 (RORγ [2]; [16]) of 5.8 ± 0.4 µM, an inhibition at 5 µg/mL (RORγ [2]; [15]) of 101% and an IC50 (RORα; [8]) of 8.9 ± 0.4 µM. It also gave an IC50 (RORβ; [9]) of 7.6 ± 0.3 µM.

O=C(Cc1ccccc1)NC1=NC[C@H](Cc2ccccc2)N1CCC1CCCCC1 [1295.261] was tested, and the IC50 (RORγ [2]; [16]) was 17.2 ± 1.6 µM, the inhibition at 5 µg/mL (RORγ [2]; [15]) was 95.9% and the IC50 (RORα; [8]) was 15.3 ± 1.7 µM. For the same molecule, the IC50 (RORβ; [9]) was 17.1 ± 2.6 µM.
